Read-outs that look alike come from different tables or passages of the source.
Target: BTK (Homo sapiens (Human), UniProt Q06187)
Assay: Btk in vitro inhibitory activity (one of Method A TR-FRET, Method B electrophoretic mobility shift, Method C radiometric filter binding)
Assay type: biochemical
[1] = determined using one of the methods of Example 355a, 355b and 355c, read-out: BTK IC50

BTK, sequence (Q06187 whole entry): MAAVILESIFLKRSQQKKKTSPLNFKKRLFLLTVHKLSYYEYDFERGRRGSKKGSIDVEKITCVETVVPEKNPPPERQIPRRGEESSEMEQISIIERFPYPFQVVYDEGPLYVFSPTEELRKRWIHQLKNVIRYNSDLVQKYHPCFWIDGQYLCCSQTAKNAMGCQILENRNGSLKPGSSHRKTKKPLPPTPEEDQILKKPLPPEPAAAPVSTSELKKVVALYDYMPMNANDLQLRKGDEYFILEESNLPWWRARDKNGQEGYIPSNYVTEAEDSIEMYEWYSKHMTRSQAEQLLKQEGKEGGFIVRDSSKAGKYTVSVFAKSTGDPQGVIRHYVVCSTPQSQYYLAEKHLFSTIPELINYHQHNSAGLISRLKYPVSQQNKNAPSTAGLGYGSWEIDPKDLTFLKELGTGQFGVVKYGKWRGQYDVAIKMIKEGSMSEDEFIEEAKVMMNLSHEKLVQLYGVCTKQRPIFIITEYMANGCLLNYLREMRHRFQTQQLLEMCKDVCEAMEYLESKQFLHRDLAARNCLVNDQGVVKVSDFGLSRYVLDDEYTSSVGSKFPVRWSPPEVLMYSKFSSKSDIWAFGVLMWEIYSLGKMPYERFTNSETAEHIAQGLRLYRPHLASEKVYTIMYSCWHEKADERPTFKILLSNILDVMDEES

Row | Structure (SMILES) | IC50 [1] [nM] | IC50 (read-out: Btk (IC50)) [nM] | IC50 (Btk (IC50)) [nM]
1 | CC(C)Oc1ccc(C(=O)N[C@@H]2CCCN(c3nnc(C(N)=O)c(Nc4ccc(C(=O)N5CCOCC5)cc4)n3)C2)cc1 [Example 90, (R)-5-(4-(morpholine-4-carbonyl)phenylamino)-3-(3-(4-isopropoxybenzamido)piperidin-1-yl)-1,2,4-triazine-6-carboxamide] | 10 to 100 | 10 to 100 | –
2 | NC(=O)c1nnc(N2CCC[C@@H](NC(=O)c3ccn4ccnc4c3)C2)nc1Nc1ccc(C(=O)N2CCOCC2)cc1 [Example 20, (R)—N-(1-(6-carbamoyl-5-(4-(morpholine-4-carbonyl)phenylamino)-1,2,4-triazin-3-yl)piperidin-3-yl)imidazo[1,2-a]pyridine-7-carboxamide] | 10 to 100 | – | –
3 | NC(=O)c1nnc(N2CCC[C@@H](NC(=O)C3CCCC3)C2)nc1Nc1ccc(C(=O)N2CCOCC2)cc1 [Example 29, (R)-3-(3-(cyclopentanecarboxamido)piperidin-1-yl)-5-(4-(morpholine-4-carbonyl)phenylamino)-1,2,4-triazine-6-carboxamide] | 10 to 100 | – | –
4 | C[C@@H]1[C@H](NC(=O)N(C)C)CCCN1c1cnc(C(N)=O)c(Nc2ccc(C3(C#N)CCCC3)cc2)n1 [Example 248, 3-(4-(1-cyanocyclopentyl)phenylamino)-5-((2R,3R)-3-(3,3-dimethylureido)-2-methylpiperidin-1-yl)pyrazine-2-carboxamide] | < 10 | < 10 | –
5 | CCCOc1ccc(C(=O)N[C@@H]2CCCN(c3nnc(C(N)=O)c(Nc4ccc(C(=O)N5CCOCC5)cc4)n3)C2)cc1 [Example 89, (R)-5-(4-(morpholine-4-carbonyl)phenylamino)-3-(3-(4-propoxybenzamido)piperidin-1-yl)-1,2,4-triazine-6-carboxamide] | < 10 | < 10 | –
6 | NC(=O)c1ncc(N2CCC[C@@H](NC(=O)C3CC4(CCC4)C3)C2)nc1Nc1ccc(C2CCN(C3CC3)CC2)cc1 [Example 309, 3-(4-(1-cyclopropylpiperidin-4-yl)phenylamino)-5-((3R)-3-(spiro[3.3]heptane-2-carboxamido)piperidin-1-yl)pyrazine-2-carboxamide] | 100 to 1000 | 100 to 1000 | –
7 | CN(C)C(=O)N[C@@H]1CCCN(c2cnc(C(N)=O)c(Nc3ccc(Cl)cc3)n2)C1 [Example 181, (R)-3-(4-chlorophenylamino)-5-(3-(3,3-dimethylureido)piperidin-1-yl)pyrazine-2-carboxamide] | 10 to 100 | – | –
8 | COc1ccc(C(=O)N[C@@H]2CCCN(c3nnc(C(N)=O)c(Nc4ccc(C5CCNCC5)cc4)n3)C2)cc1 [Example 333, (R)-3-(3-(4-methoxybenzamido)piperidin-1-yl)-5-(4-(piperidin-4-yl)phenylamino)-1,2,4-triazine-6-carboxamide] | < 10 | – | –
9 | NC(=O)c1nnc(N2CCC[C@@H](NC(=O)c3ncccn3)C2)nc1Nc1ccc(C(=O)N2CCOCC2)cc1 [Example 15, (R)-5-(4-(morpholine-4-carbonyl)phenylamino)-3-(3-(pyrimidine-2-carboxamido)piperidin-1-yl)-1,2,4-triazine-6-carboxamide] | 10 to 100 | – | –
10 | CC(C)(C)c1ccc(C(=O)N2CCC[C@@H](Nc3nnc(C(N)=O)c(Nc4ccc(C(=O)N5CCOCC5)cc4)n3)C2)cc1 [Example 62, (R)-3-(1-(4-tert-butylbenzoyl)piperidin-3-ylamino)-5-(4-(morpholine-4-carbonyl)phenylamino)-1,2,4-triazine-6-carboxamide] | 10 to 100 | – | –
11 | CN(C)C(=O)N[C@@H]1CCCN(c2nnc(C(N)=O)c(Nc3ccc(C4CCN(C5CCCC5)CC4)cc3)n2)C1 [Example 329, (R)-5-(4-(1-cyclopentylpiperidin-4-yl)phenylamino)-3-(3-(3,3-dimethylureido)piperidin-1-yl)-1,2,4-triazine-6-carboxamide] | < 10 | – | < 10
12 | NC(=O)c1nnc(N2CCC[C@@H](NC(=O)N3CCCCC3)C2)nc1Nc1ccc(C2CCN(C=O)CC2)cc1 [Example 337, (R)-5-(4-(1-formylpiperidin-4-yl)phenylamino)-3-(3-(piperidine-1-carboxamido)piperidin-1-yl)-1,2,4-triazine-6-carboxamide] | < 10 | < 10 | –
13 | CN(C(=O)N[C@@H]1CCCN(c2cnc(C(N)=O)c(NC3CC3)n2)C1)c1cc(Cl)cc(C(F)(F)F)c1 [Example 352, (R)-5-(3-(3-(3-chloro-5-(trifluoromethyl)phenyl)-3-methylureido)piperidin-1-yl)-3-(cyclopropylamino)pyrazine-2-carboxamide] | 1000 to 10000 | – | –
14 | NC(=O)c1ncc(N2CC[C@H]3CCN(C(=O)C4CC4)[C@H]3C2)nc1Nc1ccc(C2CCN(C3CCCC3)CC2)cc1 (racemic) [Example 293, 3-(4-(1-cyclopentylpiperidin-4-yl)phenylamino)-5-((3aS,7aR)-1-(cyclopropanecarbonyl)tetrahydro-1H-pyrrolo[2,3-c]pyridin-6(2H,7H,7aH)-yl)pyrazine-2-carboxamide] | 10 to 100 | 10 to 100 | –
15 | CCN1CCN([C@@H]2CCCN(c3cnc(C(N)=O)c(Nc4ccc(C5(C)CCN(C6CC6)CC5)cc4)n3)C2)C1=O [Example 276, (R)-3-(4-(1-cyclopropyl-4-methylpiperidin-4-yl)phenylamino)-5-(3-(3-ethyl-2-oxoimidazolidin-1-yl)piperidin-1-yl)pyrazine-2-carboxamide] | < 10 | < 10 | –
16 | NC(=O)c1ncc(N2CCC[C@@H](NC(=O)c3cc4c(s3)CCCC4)C2)nc1Nc1ccc(C2CCN(C3CC3)CC2)cc1 [Example 316, (R)-3-(4-(1-cyclopropylpiperidin-4-yl)phenylamino)-5-(3-(4,5,6,7-tetrahydrobenzo[b]thiophene-2-carboxamido)piperidin-1-yl)pyrazine-2-carboxamide] | < 10 | – | –
17 | COc1ccc(C(=O)N[C@@H]2CCCN(c3cnc(C(N)=O)c(Nc4ccc(C5CCN(S(C)(=O)=O)CC5)cc4)n3)C2)cc1 [Example 143, (R)-5-(3-(4-methoxybenzamido)piperidin-1-yl)-3-(4-(1-(methylsulfonyl)piperidin-4-yl)phenylamino)pyrazine-2-carboxamide] | 10 to 100 | – | 10 to 100
18 | COc1ccc(C(=O)N[C@@H]2CCCN(c3cnc(C(N)=O)c(Nc4ccc(C5CCNCC5)cc4F)n3)C2)cc1 [Example 162, (R)-3-(2-fluoro-4-(piperidin-4-yl)phenylamino)-5-(3-(4-methoxybenzamido)piperidin-1-yl)pyrazine-2-carboxamide] | < 10 | 10 to 100 | –
19 | NC(=O)c1nnc(N2CC[C@@H](NC(=O)c3ccccc3)C2)nc1Nc1ccc(C(=O)N2CCOCC2)cc1 [Example 50, (R)-3-(3-benzamidopyrrolidin-1-yl)-5-(4-(morpholine-4-carbonyl)phenylamino)-1,2,4-triazine-6-carboxamide] | 100 to 1000 | – | –
20 | NC(=O)c1nnc(N2CCC[C@@H](NC(=O)N3CCCCC3)C2)nc1Nc1cnc2ccccc2c1 [Example 108, (R)-3-(3-(piperidine-1-carboxamido)piperidin-1-yl)-5-(quinolin-3-ylamino)-1,2,4-triazine-6-carboxamide] | 100 to 1000 | – | –
21 | C[C@@H]1[C@H](N2CCCN(C)C2=O)CCCN1c1cnc(C(N)=O)c(Nc2ccc(C3CCN(C4CCCC4)CC3)cc2)n1 [Example 281, 3-(4-(1-cyclopentylpiperidin-4-yl)phenylamino)-5-((2R,3R)-2-methyl-3-(3-methyl-2-oxotetrahydropyrimidin-1(2H)-yl)piperidin-1-yl)pyrazine-2-carboxamide] | < 10 | – | < 10
22 | CN(C)C(=O)N[C@@H]1CCCN(c2cnc(C(N)=O)c(Nc3ccc(C4CCN(C5CCCC5)CC4)cc3)n2)C1 [Example 155, (R)-3-(4-(1-cyclopentylpiperidin-4-yl)phenylamino)-5-(3-(3,3-dimethylureido)piperidin-1-yl)pyrazine-2-carboxamide] | < 10 | < 10 | –
23 | NC(=O)c1nnc(N2CCC[C@@H](NC(=O)N3CCC(N4CCCCC4)CC3)C2)nc1Nc1ccc(C(=O)N2CCOCC2)cc1 [Example 37, (R)—N-(1-(6-carbamoyl-5-(4-(morpholine-4-carbonyl)phenylamino)-1,2,4-triazin-3-yl)piperidin-3-yl)-1,4′-bipiperidine-1′-carboxamide] | 10 to 100 | – | –
24 | NC(=O)c1nnc(N2CCC[C@@H](Oc3nccc4cc(C5CC5)cc(F)c34)C2)nc1Nc1ccc(C(=O)N2CCOCC2)cc1 [Example 48, (R)-3-(3-(6-cyclopropyl-8-fluoroisoquinolin-1-yloxy)piperidin-1-yl)-5-(4-(morpholine-4-carbonyl)phenylamino)-1,2,4-triazine-6-carboxamide] | 100 to 1000 | – | –
25 | Cc1cccc(Nc2nc(N3CCC[C@@H](NC(=O)c4ccc(C(C)(C)C)cc4)C3)nnc2C(N)=O)c1 [Example 54, (R)-3-(3-(4-tert-butylbenzamido)piperidin-1-yl)-5-(m-tolylamino)-1,2,4-triazine-6-carboxamide] | 1000 to 10000 | – | –
26 | NC(=O)c1nnc(N[C@@H]2CCNC2)nc1Nc1ccc(C(=O)N2CCOCC2)cc1 [Example 69, (R)-5-(4-(morpholine-4-carbonyl)phenylamino)-3-(pyrrolidin-3-ylamino)-1,2,4-triazine-6-carboxamide] | 10 to 100 | – | –
27 | CN1CCN([C@@H]2CCCN(c3cnc(C(N)=O)c(Nc4ccc(C5CCN(C6CCCC6)CC5)cc4)n3)C2)C1=O [Example 256, (R)-3-(4-(1-cyclopentylpiperidin-4-yl)phenylamino)-5-(3-(3-methyl-2-oxoimidazolidin-1-yl)piperidin-1-yl)pyrazine-2-carboxamide] | < 10 | < 10 | –
28 | CN1CCN([C@@H]2CCCN(c3cnc(C(N)=O)c(Nc4ccc(C5(C)CCN(C=O)CC5)cc4)n3)C2)C1=O [Example 268, (R)-3-(4-(1-formyl-4-methylpiperidin-4-yl)phenylamino)-5-(3-(3-methyl-2-oxoimidazolidin-1-yl)piperidin-1-yl)pyrazine-2-carboxamide] | < 10 | < 10 | –
29 | CC(C)[N+]1([O-])CCC(c2ccc(Nc3nc(N4CCC[C@@H](NC(=O)N(C)C)C4)cnc3C(N)=O)cc2)CC1 (stereo partly drawn) [Example 209, (R)-4-(4-(3-carbamoyl-6-(3-(3,3-dimethylureido)piperidin-1-yl)pyrazin-2-ylamino)phenyl)-1-isopropylpiperidine 1-oxide] | 10 to 100 | – | –

— patent US9656988B2 (Pharmacyclics LLC, priority 2013, dated 2017)
